Experimental data as given in the NIST ThermoML archive (doi:10.1016/j.jct.2017.08.004).
Several values for one entry are separate records, joined by “and”; a condition that tells them apart may be missing. Identical values can stand only once.

Test: molar heat capacity at constant pressure
Details: 101.33 kPa, Crystal

OC[C@@H](O)[C@H](O)[C@@H](O)CO [xylitol]
Details | molar heat capacity at constant pressure
1 K, relaxation calorimetry | 0.0008271 J/K/mol
1.922 K, relaxation calorimetry | 0.005594 J/K/mol
2 K, relaxation calorimetry | 0.006331 J/K/mol
2.139 K, relaxation calorimetry | 0.007737 J/K/mol
2.374 K, relaxation calorimetry | 0.01068 J/K/mol
2.635 K, relaxation calorimetry | 0.0145 J/K/mol
2.93 K, relaxation calorimetry | 0.02028 J/K/mol
3 K, relaxation calorimetry | 0.02164 J/K/mol
3.25 K, relaxation calorimetry | 0.02792 J/K/mol
3.603 K, relaxation calorimetry | 0.03808 J/K/mol
4 K, relaxation calorimetry | 0.05265 J/K/mol and 0.05269 J/K/mol
4.437 K, relaxation calorimetry | 0.07193 J/K/mol
4.924 K, relaxation calorimetry | 0.1019 J/K/mol
5 K, relaxation calorimetry | 0.1065 J/K/mol
5.466 K, relaxation calorimetry | 0.1404 J/K/mol
6 K, relaxation calorimetry | 0.191 J/K/mol
6.063 K, relaxation calorimetry | 0.1974 J/K/mol
6.726 K, relaxation calorimetry | 0.2771 J/K/mol
7 K, relaxation calorimetry | 0.3152 J/K/mol
7.46 K, relaxation calorimetry | 0.3882 J/K/mol
8 K, relaxation calorimetry | 0.4898 J/K/mol
8.276 K, relaxation calorimetry | 0.5472 J/K/mol
9 K, relaxation calorimetry | 0.7186 J/K/mol
9.181 K, relaxation calorimetry | 0.7649 J/K/mol
10 K, relaxation calorimetry | 1.004 J/K/mol
10.2 K, relaxation calorimetry | 1.063 J/K/mol
11.29 K, relaxation calorimetry | 1.456 J/K/mol
12.52 K, relaxation calorimetry | 1.978 J/K/mol
13.9 K, relaxation calorimetry | 2.652 J/K/mol
15 K, relaxation calorimetry | 3.243 J/K/mol
15.43 K, relaxation calorimetry | 3.486 J/K/mol
17.11 K, relaxation calorimetry | 4.536 J/K/mol
19 K, relaxation calorimetry | 5.817 J/K/mol
20 K, relaxation calorimetry | 6.537 J/K/mol
21.08 K, relaxation calorimetry | 7.334 J/K/mol
23.4 K, relaxation calorimetry | 9.137 J/K/mol
25 K, relaxation calorimetry | 10.45 J/K/mol
25.98 K, relaxation calorimetry | 11.24 J/K/mol
28.85 K, relaxation calorimetry | 13.71 J/K/mol
30 K, relaxation calorimetry | 14.71 J/K/mol
32.02 K, relaxation calorimetry | 16.53 J/K/mol
35 K, relaxation calorimetry | 19.23 J/K/mol
35.54 K, relaxation calorimetry | 19.78 J/K/mol
39.45 K, relaxation calorimetry | 23.43 J/K/mol
40 K, relaxation calorimetry | 23.95 J/K/mol
43.77 K, relaxation calorimetry | 27.59 J/K/mol
45 K, relaxation calorimetry | 28.76 J/K/mol
48.58 K, relaxation calorimetry | 32.08 J/K/mol
50 K, relaxation calorimetry | 33.53 J/K/mol
53.91 K, relaxation calorimetry | 37.13 J/K/mol
55 K, relaxation calorimetry | 38.17 J/K/mol
59.82 K, relaxation calorimetry | 42.74 J/K/mol
60 K, relaxation calorimetry | 42.76 J/K/mol
65 K, relaxation calorimetry | 47.51 J/K/mol
66.39 K, relaxation calorimetry | 48.78 J/K/mol
70 K, relaxation calorimetry | 52.03 J/K/mol
73.7 K, relaxation calorimetry | 55.27 J/K/mol
75 K, relaxation calorimetry | 56.38 J/K/mol
80 K, relaxation calorimetry | 60.61 J/K/mol
81.8 K, relaxation calorimetry | 62.47 J/K/mol
85 K, relaxation calorimetry | 64.74 J/K/mol
90 K, relaxation calorimetry | 68.78 J/K/mol
90.79 K, relaxation calorimetry | 69.45 J/K/mol
95 K, relaxation calorimetry | 72.72 J/K/mol
100 K, relaxation calorimetry | 76.57 J/K/mol
100.73 K, relaxation calorimetry | 76.61 J/K/mol
110 K, relaxation calorimetry | 84.01 J/K/mol
110.86 K, relaxation calorimetry | 84.59 J/K/mol
120 K, relaxation calorimetry | 91.15 J/K/mol
120.92 K, relaxation calorimetry | 91.94 J/K/mol
130 K, relaxation calorimetry | 98.03 J/K/mol
130.99 K, relaxation calorimetry | 98.86 J/K/mol
140 K, relaxation calorimetry | 104.68 J/K/mol
141.06 K, relaxation calorimetry | 105.29 J/K/mol
150 K, relaxation calorimetry | 111.17 J/K/mol
151.18 K, relaxation calorimetry | 112.01 J/K/mol
160 K, relaxation calorimetry | 117.52 J/K/mol
161.27 K, relaxation calorimetry | 118.23 J/K/mol
170 K, relaxation calorimetry | 123.79 J/K/mol
171.37 K, relaxation calorimetry | 124.62 J/K/mol
180 K, relaxation calorimetry | 130 J/K/mol
181.44 K, relaxation calorimetry | 131.13 J/K/mol
188.15 K, Small sample (50 mg) DSC | 129.73 J/K/mol
189.15 K, Small sample (50 mg) DSC | 130.13 J/K/mol
190 K, relaxation calorimetry | 136.19 J/K/mol
190.15 K, Small sample (50 mg) DSC | 131.3 J/K/mol
191.15 K, Small sample (50 mg) DSC | 132.22 J/K/mol
191.51 K, relaxation calorimetry | 137.32 J/K/mol
192.15 K, Small sample (50 mg) DSC | 132.97 J/K/mol
193.15 K, Small sample (50 mg) DSC | 133.63 J/K/mol
194.15 K, Small sample (50 mg) DSC | 134.85 J/K/mol
195.15 K, Small sample (50 mg) DSC | 136.05 J/K/mol
196.15 K, Small sample (50 mg) DSC | 137.13 J/K/mol
197.15 K, Small sample (50 mg) DSC | 137.99 J/K/mol
198.15 K, Small sample (50 mg) DSC | 138.87 J/K/mol
199.15 K, Small sample (50 mg) DSC | 139.73 J/K/mol
200 K, relaxation calorimetry | 142.38 J/K/mol
200.15 K, Small sample (50 mg) DSC | 140.65 J/K/mol
201.15 K, Small sample (50 mg) DSC | 141.4 J/K/mol
201.63 K, relaxation calorimetry | 143.25 J/K/mol
202.15 K, Small sample (50 mg) DSC | 142.18 J/K/mol
203.15 K, Small sample (50 mg) DSC | 143.08 J/K/mol
204.15 K, Small sample (50 mg) DSC | 143.76 J/K/mol
205.15 K, Small sample (50 mg) DSC | 144.29 J/K/mol
206.15 K, Small sample (50 mg) DSC | 145.08 J/K/mol
207.15 K, Small sample (50 mg) DSC | 145.87 J/K/mol
208.15 K, Small sample (50 mg) DSC | 146.4 J/K/mol
209.15 K, Small sample (50 mg) DSC | 147.11 J/K/mol
210 K, relaxation calorimetry | 148.6 J/K/mol
210.15 K, Small sample (50 mg) DSC | 147.83 J/K/mol
211.15 K, Small sample (50 mg) DSC | 148.54 J/K/mol
211.72 K, relaxation calorimetry | 149.26 J/K/mol
212.15 K, Small sample (50 mg) DSC | 149.22 J/K/mol
213.15 K, Small sample (50 mg) DSC | 149.76 J/K/mol
214.15 K, Small sample (50 mg) DSC | 150.56 J/K/mol
215.15 K, Small sample (50 mg) DSC | 151.28 J/K/mol
216.15 K, Small sample (50 mg) DSC | 152.02 J/K/mol
217.15 K, Small sample (50 mg) DSC | 152.63 J/K/mol
218.15 K, Small sample (50 mg) DSC | 153.29 J/K/mol
219.15 K, Small sample (50 mg) DSC | 154.13 J/K/mol
220 K, relaxation calorimetry | 154.86 J/K/mol
220.15 K, Small sample (50 mg) DSC | 154.86 J/K/mol
221.15 K, Small sample (50 mg) DSC | 155.65 J/K/mol
221.81 K, relaxation calorimetry | 156.12 J/K/mol
222.15 K, Small sample (50 mg) DSC | 156.3 J/K/mol
223.15 K, Small sample (50 mg) DSC | 157.01 J/K/mol
224.15 K, Small sample (50 mg) DSC | 157.66 J/K/mol
225.15 K, Small sample (50 mg) DSC | 158.24 J/K/mol
226.15 K, Small sample (50 mg) DSC | 158.84 J/K/mol
227.15 K, Small sample (50 mg) DSC | 159.41 J/K/mol
228.15 K, Small sample (50 mg) DSC | 160.16 J/K/mol
229.15 K, Small sample (50 mg) DSC | 160.62 J/K/mol
230 K, relaxation calorimetry | 161.19 J/K/mol
230.15 K, Small sample (50 mg) DSC | 161.2 J/K/mol
231.15 K, Small sample (50 mg) DSC | 162.12 J/K/mol
231.89 K, relaxation calorimetry | 162.24 J/K/mol
232.15 K, Small sample (50 mg) DSC | 162.73 J/K/mol
233.15 K, Small sample (50 mg) DSC | 163.22 J/K/mol
234.15 K, Small sample (50 mg) DSC | 164.01 J/K/mol
235.15 K, Small sample (50 mg) DSC | 164.81 J/K/mol
236.15 K, Small sample (50 mg) DSC | 165.55 J/K/mol
237.15 K, Small sample (50 mg) DSC | 166.14 J/K/mol
238.15 K, Small sample (50 mg) DSC | 166.88 J/K/mol
239.15 K, Small sample (50 mg) DSC | 167.65 J/K/mol
240 K, relaxation calorimetry | 167.6 J/K/mol
240.15 K, Small sample (50 mg) DSC | 168.23 J/K/mol
241.15 K, Small sample (50 mg) DSC | 168.92 J/K/mol
241.89 K, relaxation calorimetry | 168.66 J/K/mol
242.15 K, Small sample (50 mg) DSC | 169.52 J/K/mol
243.15 K, Small sample (50 mg) DSC | 170.22 J/K/mol
244.15 K, Small sample (50 mg) DSC | 170.79 J/K/mol
245.15 K, Small sample (50 mg) DSC | 171.35 J/K/mol
246.15 K, Small sample (50 mg) DSC | 172.07 J/K/mol
247.15 K, Small sample (50 mg) DSC | 172.62 J/K/mol
248.15 K, Small sample (50 mg) DSC | 173.32 J/K/mol
249.15 K, Small sample (50 mg) DSC | 173.97 J/K/mol
250 K, relaxation calorimetry | 174.1 J/K/mol
250.15 K, Small sample (50 mg) DSC | 174.75 J/K/mol
251.15 K, Small sample (50 mg) DSC | 175.38 J/K/mol
252.05 K, relaxation calorimetry | 175.66 J/K/mol
252.15 K, Small sample (50 mg) DSC | 176.09 J/K/mol
253.15 K, Small sample (50 mg) DSC | 176.77 J/K/mol
254.15 K, Small sample (50 mg) DSC | 177.72 J/K/mol
255.15 K, Small sample (50 mg) DSC | 178.41 J/K/mol
256.15 K, Small sample (50 mg) DSC | 179.25 J/K/mol
257.15 K, Small sample (50 mg) DSC | 180.21 J/K/mol
258.15 K, Small sample (50 mg) DSC | 180.68 J/K/mol
259.15 K, Small sample (50 mg) DSC | 181.27 J/K/mol
260 K, relaxation calorimetry | 180.7 J/K/mol
260.15 K, Small sample (50 mg) DSC | 182.15 J/K/mol
